Reference: US4128666A, “4 AND 5-Halo substituted 2-indanamine compounds” (SmithKline Corporation, priority 1977, dated 1978)

What was measured:
[1] = target: phenylethanolamine N-methyltransferase; test: inhibition of phenylethanolamine N-methyltransferase in vitro; type: biochemical; settings: for Ki: enzyme inhibition dissociation constant, calculated according to Chou
Protocol: Chem. Path. Pharm. 17:201-213, 1977, at various compound concentrations. From the data received, the enzyme inhibition dissociation constants (Ki values) were calculated according to mathematical procedures described by Chou, Mol. Pharm. 10:235-247, 1974.
The Ki value of a preferred compound of this invention, 4,5-dichloro-2-indanamine, was compared with other closely related compounds.

[2] = tested on: adrenal epinephrine/norepinephrine ratio; test: in vivo adrenal epinephrine/norepinephrine ratio in mice (PNMT inhibition); settings: for E/NE Ratio: male mice, 50 mg/kg p.o. daily dose, seven days, n = 5
Protocol: Male mice were dosed orally with either drug or vehicle control on a twice-a-day basis for seven consecutive days.
On the morning of the next day they were again dosed with two hours later sacrificed by decapitation. The adrenal glands were then removed and analyzed fluorometrically for both epinephrine and norepinephrine content.

[3] = Experiment 1, control 2.6 ± .1, ^b (SK & F 82566) significantly different from control, p <.001

| SMILES | Ki [1] [nM] | potency of inhibition (in words) ([1]; compared with the other compounds of Table I) | E/NE Ratio [2, 3] | lowering of adrenal epinephrine/norepinephrine ratio (in words) ([2]; only this compound, under the conditions of this study) | E/NE Ratio ([2]; Experiment 2, control 2.0 ± .05) |
| --- | --- | --- | --- | --- | --- |
| NC1CCc2ccc(Cl)c(Cl)c21 (centres unmarked) [SK & F 82570] | > 1000 |  |  |  |  |
| NC1Cc2ccc(Cl)c(Cl)c2C1 (centres unmarked) [SK & F 82566, 4,5-dichloro-2-indanamine] | 20 | much more potent inhibitor than the other compounds | 1.1 | significantly lowered the adrenal epinephrine/norepinephrine ratio |  |
| NC1CCc2c1ccc(Cl)c2Cl (centres unmarked) [SK & F 82520] | 400 |  |  |  | 1.8 |
| NC1Cc2ccccc2C1 [SK & F 8851] | 10000 |  | 2.4 |  |  |
| NC1Cc2cc(Cl)c(Cl)cc2C1 [SK & F 50070] | 1000 |  | 2.2 |  |  |
